Results reported in PubChem BioAssay AID1361 (SRMLSC, 2008).
The source made the active and inactive calls. No rule for the calls is given here.

Assay: mitochondrial fusion inhibitors, confirmation, cell-based, chemical genetic, wild-type and mutant (AID 1361)
Conditions: Cell-based mitochondrial fusion phenotype, imaging
[1] = mutant cells, measured here: mutant cell line IC50

Row | Compound | IC50 (WT cells) | IC50 [1]
1 | Cc1nc(N2CCCCC2)c2c(C)c(C(=O)Nc3cccc(C(F)(F)F)c3)sc2n1 | 9.62 µM | > 25 µM
2 | CCCC(=O)NC(=S)Nc1cccc(Cl)c1N1CCCCC1 | 22.5 µM | > 25 µM
3 | CCOC(=O)C1=C(C)N=C2SCCC(=O)N2C1c1sccc1C (stereo not drawn) | > 25 µM (inactive) | > 25 µM
4 | O=C(NC1CCS(=O)(=O)C1)c1ccc(-c2ccc(Br)cc2)o1 (stereo not drawn) | > 25 µM (inactive) | > 25 µM
5 | Cc1cccc(NC(=S)NNC(=O)COc2ccc(Cl)cc2Cl)c1 | 10.9 µM | 21 µM
6 | Cn1c(=O)c(NC2CCCCC2)c2c3c(cccc31)C(=O)c1ccccc1-2 | 11 µM | 21.1 µM
7 | O=C(O)C1CCCCC1C(=O)Nc1ccc(F)cc1F (stereo not drawn) | > 25 µM (inactive) | > 25 µM
8 | CC(C)=CCc1c2c(c3occ(-c4ccc(O)cc4)c(=O)c3c1O)C=CC(C)(C)O2 | 24.7 µM | > 25 µM
9 | CCOC(=O)c1c(C)[nH]c(C(=O)OCC(=O)Nc2cc(Cl)ccc2OC)c1C | > 25 µM (inactive) | > 25 µM
10 | COC(=O)CNC(c1ccccc1)c1cc(C)ccc1NC(=O)c1cccc(Cl)c1 (stereo not drawn) | 9.38 µM | > 25 µM
11 | CCc1cc(-c2n[nH]c(=S)n2-c2ccccc2C)cs1 | > 25 µM (inactive) | > 25 µM
12 | COC(=O)c1c(NC(=O)CN2CCC3(O)CCCCC3C2c2ccc(F)cc2)sc(C)c1C (stereo not drawn) | 14.4 µM | > 25 µM
13 | COc1ccc(CC(=O)N2CCOCC2)cc1OC | > 25 µM (inactive) | > 25 µM
14 | Cc1ccc(SCC(=O)O/N=C(\N)c2cccc([N+](=O)[O-])c2)cc1 | > 25 µM (inactive) | > 25 µM
15 | COc1ccc(C(C)(C)C)cc1NC(=O)Nc1ccc2c(c1)OCO2 | 9.81 µM | 23.3 µM
16 | O=C(NCCCN1CCOCC1)c1ccccc1-c1ccccc1 | > 25 µM (inactive) | > 25 µM
17 | Cc1ccc(Nc2ccc(C(=O)O)cc2N)cc1 | > 25 µM (inactive) | > 25 µM
18 | CCN1CCN(CCNC(=O)c2ccc(/C=C3/Sc4ccccc4N(Cc4ccccc4C)C3=O)cc2)CC1 | 15.5 µM | > 25 µM
19 | COc1ccc2nc(NC(=O)c3cccc(OCc4c(C)noc4C)c3)sc2c1 | > 25 µM (inactive) | > 25 µM
20 | N#CC(c1ccc(Cl)cc1)(c1ncc(C(F)(F)F)cc1Cl)N1CCOCC1 (stereo not drawn) | > 25 µM (inactive) | > 25 µM

Row | Compound | IC50 (WT cells) | IC50 [1]
21 | CCOC(=O)/C(=C/c1ccc(N2CCC(c3ccccc3)=N2)cc1)C(C)=O | > 25 µM (inactive) | > 25 µM
22 | CC#C[C@]1(O)CC[C@H]2[C@@H]3CCC4=CC(=O)CCC4=C3[C@@H](c3ccc(N(C)C)cc3)C[C@@]21C | 20.9 µM | > 25 µM
23 | Cn1c(/C=C/N2CCOCC2)c(C(=O)c2ccc(Br)cc2)c(=O)n(C)c1=O | > 25 µM (inactive) | > 25 µM
24 | Cc1cc(C)cc(NC(=S)NC2CC3CCC(C2)N3Cc2ccco2)c1 (stereo not drawn) | > 25 µM (inactive) | > 25 µM
25 | COc1ccc(C2c3c(ncn(Cc4ccco4)c3=N)Oc3ccc4ccccc4c32)cc1 (stereo not drawn) | 13.4 µM | > 25 µM
26 | N#Cc1sc2nc(C3CC3)cc(-c3ccc(Cl)cc3)c2c1N | 11.7 µM | 19.5 µM
27 | COC(=O)c1ccccc1NC(=O)CNc1cc(Cl)ccc1N1CCOCC1 | 24.7 µM | > 25 µM
28 | CC1=CCC[C@@H]2[C@@](C)(CC/C(C)=C/C(=O)O)[C@H](C)CC[C@@]12C | 21.7 µM | > 25 µM
29 | Clc1ccc(C2=NNC(=NCc3ccc4c(c3)OCO4)SC2)cc1 | > 25 µM (inactive) | > 25 µM
30 | CCOC(=O)c1ccc2c(c1)n(CC)c(/C=C/N(C)c1ccccc1)[n+]2CC | > 25 µM (inactive) | > 25 µM
31 | COc1ccc(-n2cc(-c3ccccc3)c3c(N4CC(C)OC(C)C4)ncnc32)cc1 (stereo not drawn) | 21.5 µM | > 25 µM
32 | CCOC(=O)c1cc2c(ccn2C)n1Cc1cc(C)ccc1C | 25 µM (inactive) | > 25 µM
33 | Cc1cc(C)cc(NC(=S)Nc2cccc3cnccc23)c1 | > 25 µM (inactive) | > 25 µM
34 | CCOc1ccc(Br)cc1C1C(C(=O)OC)=C(N)Oc2cc(N(C)C)ccc21 (stereo not drawn) | 11.7 µM | > 25 µM
35 | Cc1onc(-c2ccccc2Cl)c1C(=O)Nc1sc2c(c1C(N)=O)CCC(C)C2 (stereo not drawn) | 12.2 µM | > 25 µM
36 | Clc1ccccc1Cn1c(/C=C/c2ccco2)nc2ccccc21 | 11.6 µM | 25 µM
37 | COc1ccc(C2C(C#N)=C(SC)NC3=C2C(=O)CC(C)(C)C3)cc1 (stereo not drawn) | > 25 µM (inactive) | > 25 µM
38 | c1ccc(Cn2c(SCc3cn4cccnc4n3)nnc2-c2ccco2)cc1 | > 25 µM (inactive) | > 25 µM
39 | c1ccc2c(c1)[nH]c1c(N3CCCC3)ncnc12 | > 25 µM (inactive) | > 25 µM
40 | CCOC(=O)C1=C(C)NC(C)=C(C(=O)OC)C1c1cccc(Cl)c1Cl (stereo not drawn) | 20.4 µM | > 25 µM

Row | Compound | IC50 (WT cells) | IC50 [1]
41 | O=C1NC(Nc2nc3ccccc3s2)(C(F)(F)F)C(=O)N1C1CCCCC1 (stereo not drawn) | 20 µM | > 25 µM
42 | COc1ccccc1NC1=C(Cl)C(=O)N(C2CCCCC2)C1=O | 23.8 µM | > 25 µM
43 | CCSc1nnc(NC(=O)COc2ccc3ccccc3c2)s1 | > 25 µM (inactive) | > 25 µM
44 | CCN(CC)c1nc(-c2ccccc2)ncc1S(=O)(=O)c1ccc(C)cc1 | 11 µM | > 25 µM
45 | O=C(COc1ccccc1[N+](=O)[O-])N/N=C/C=C/c1ccco1 | > 25 µM (inactive) | > 25 µM
46 | COc1ccccc1CNC(=O)c1ccc(-c2ccccc2C(F)(F)F)o1 | 21.3 µM | > 25 µM
47 | Cc1cc(NC(=S)N(Cc2cccc(Br)c2)CC2CCC(C(=O)O)CC2)ccc1Cl (stereo not drawn) | 21.9 µM | > 25 µM
48 | Cc1cc(N2CCN(C(c3ccccc3)c3ccc(Cl)cc3)CC2)n2ncnc2n1 (stereo not drawn) | 13.7 µM | 22.3 µM
49 | CCOC(=O)C1=NN(c2ccccc2)C2(S1)SC(C(C)=O)=C(C)N2c1ccccc1 (stereo not drawn) | 7.84 µM | > 25 µM
50 | O=c1cc(N2CCCCC2)c(-c2ccccc2)nn1Cc1ccc(F)cc1 | 17.4 µM | > 25 µM
51 | Cc1ccc(S(=O)(=O)n2c3ccc(Cl)cc3c3nc(C)sc32)cc1 | 9.63 µM | > 25 µM
52 | COCC(C)NC(=O)c1cc(-c2cccc(OC)c2)on1 (stereo not drawn) | > 25 µM (inactive) | > 25 µM
53 | CC(C)C(=O)N(c1cc2sc(=O)oc2c2ccccc12)S(=O)(=O)c1cccs1 | 7.48 µM | 20.7 µM
54 | C/C(=N\Nc1cc(-c2ccccc2)nc(-c2ccccc2)n1)c1ccc(O)c(C)c1 | 3.31 µM | > 25 µM
55 | CSc1nc2ccc(NS(=O)(=O)c3c(Cl)cccc3Cl)cc2s1 | 19.3 µM | > 25 µM
56 | C(=N\Nc1nc(Nc2ccccc2)nc(N2CCCCC2)n1)/c1ccco1 | 22.5 µM | > 25 µM
57 | CCC(=O)N1CCN(c2ccccc2NC(=O)COc2cc(C)ccc2C(C)C)CC1 | > 25 µM (inactive) | > 25 µM
58 | CC1CC(C)CN(C(=O)c2cc3cc(Br)cc(Br)c3o2)C1 (stereo not drawn) | 13.7 µM | 22.5 µM
59 | Cc1cc(NC(=O)COC(=O)C(Nc2ccc(C(F)(F)F)cc2Cl)C(C)C)no1 (stereo not drawn) | 13.8 µM | 24.2 µM
